From PubChem BioAssay (NCI)
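How tested: cells in 96-well plates exposed to compound for 48 hours at five concentrations. TGI is the concentration that stops growth completely.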

Key:
Test in all cases: DTP human tumour cell line panel, 48 h
HCT-15 colon = test system: HCT-15 colon
TK-10 renal = test system: TK-10 renal
SN12C renal = test system: SN12C renal
CAKI-1 renal = test system: CAKI-1 renal
COLO 205 colon = test system: COLO 205 colon
HL-60(TB) leukemia = test system: HL-60(TB) leukemia
MDA-N = test system: MDA-N
PC-3 prostate = test system: PC-3 prostate
OVCAR-4 ovarian = test system: OVCAR-4 ovarian
SK-MEL-5 melanoma = test system: SK-MEL-5 melanoma

For `Cc1ccc(OCC2OC(n3cnc4c(Cl)nc(N)nc43)CC2Oc2ccc(C)cc2)cc1` (stereo not given), the TGI (HCT-15 colon) was > 100 µM, the TGI (TK-10 renal) was > 100 µM and the TGI (SN12C renal) was > 100 µM. For the same compound, the TGI (CAKI-1 renal) was 20.3 µM, the TGI (COLO 205 colon) was 98.2 µM and the TGI (HL-60(TB) leukemia) was > 71.7 µM. For the same compound, the TGI (MDA-N) was > 100 µM, the TGI (PC-3 prostate) was > 58.5 µM and the TGI (OVCAR-4 ovarian) was 61.3 µM. For the same compound, the TGI (SK-MEL-5 melanoma) was > 100 µM.
In the case of `C/C(=N/NC(=S)N1CCCCC1)c1ccccc1O`, the TGI (HCT-15 colon) is reported as > 31.6 µM, the TGI (TK-10 renal) is reported as > 31.6 µM and the TGI (SN12C renal) is reported as > 31.6 µM. For the same compound, the TGI (CAKI-1 renal) was > 31.6 µM, the TGI (COLO 205 colon) was > 31.6 µM and the TGI (HL-60(TB) leukemia) was > 31.6 µM. The TGI (MDA-N) was > 31.6 µM, the TGI (PC-3 prostate) was > 31.6 µM and the TGI (OVCAR-4 ovarian) was > 31.6 µM. The TGI (SK-MEL-5 melanoma) was > 100 µM.
In the case of `C[C@H](NC(=O)C(Cc1ccccc1)(Cc1ccc(O)cn1)NC(=O)c1ccccc1)c1ccccc1` (stereo not given in full), the TGI (HCT-15 colon) is reported as 38.3 µM, the TGI (TK-10 renal) is reported as 94.8 µM and the TGI (SN12C renal) is reported as 31.5 µM. The TGI (CAKI-1 renal) was 90.5 µM, the TGI (COLO 205 colon) was 35.1 µM and the TGI (HL-60(TB) leukemia) was 64.6 µM. For the same compound, the TGI (MDA-N) was 30.7 µM, the TGI (PC-3 prostate) was 28.7 µM and the TGI (OVCAR-4 ovarian) was 50.4 µM. For the same compound, the TGI (SK-MEL-5 melanoma) was 33.7 µM.
With `CCOP(=O)(/C=C\n1cc(C)c(=O)[nH]c1=O)OCC` the TGI (HCT-15 colon) was > 100 µM, the TGI (TK-10 renal) was > 100 µM and the TGI (SN12C renal) was > 100 µM. The TGI (CAKI-1 renal) was > 100 µM, the TGI (COLO 205 colon) was > 100 µM and the TGI (HL-60(TB) leukemia) was > 100 µM. For the same compound, the TGI (MDA-N) was > 100 µM, the TGI (PC-3 prostate) was > 100 µM and the TGI (OVCAR-4 ovarian) was > 100 µM. For the same compound, the TGI (SK-MEL-5 melanoma) was > 100 µM.
`CC(C)CNc1nc2ncnc(N)c2[nH]1` was tested, and the TGI (HCT-15 colon) was > 100 µM, the TGI (TK-10 renal) was > 100 µM and the TGI (SN12C renal) was > 100 µM. The TGI (CAKI-1 renal) was > 100 µM, the TGI (COLO 205 colon) was > 100 µM and the TGI (HL-60(TB) leukemia) was > 100 µM. For the same compound, the TGI (MDA-N) was > 100 µM, the TGI (PC-3 prostate) was > 100 µM and the TGI (OVCAR-4 ovarian) was > 100 µM. For the same compound, the TGI (SK-MEL-5 melanoma) was > 100 µM.
For `CCCCOC(=O)C(NC(C(=O)OCCCC)c1cc(C(C)(C)C)c(O)c(C(C)(C)C)c1)c1cc(C(C)(C)C)c(O)c(C(C)(C)C)c1` (stereo not given), the TGI (HCT-15 colon) was > 100 µM, the TGI (TK-10 renal) was > 100 µM and the TGI (SN12C renal) was > 100 µM. The TGI (CAKI-1 renal) was > 100 µM, the TGI (COLO 205 colon) was > 100 µM and the TGI (HL-60(TB) leukemia) was > 100 µM. For the same compound, the TGI (MDA-N) was > 100 µM, the TGI (PC-3 prostate) was > 100 µM and the TGI (OVCAR-4 ovarian) was > 100 µM. For the same compound, the TGI (SK-MEL-5 melanoma) was > 100 µM.
In the case of `CC1(C)N/C(=C\C=O)C(C)(C)N1O`, the TGI (HCT-15 colon) is reported as > 100 µM, the TGI (TK-10 renal) is reported as > 100 µM and the TGI (SN12C renal) is reported as > 100 µM. For the same compound, the TGI (CAKI-1 renal) was > 100 µM, the TGI (COLO 205 colon) was > 100 µM and the TGI (HL-60(TB) leukemia) was > 100 µM. The TGI (MDA-N) was > 100 µM, the TGI (PC-3 prostate) was > 100 µM and the TGI (OVCAR-4 ovarian) was > 100 µM. For the same compound, the TGI (SK-MEL-5 melanoma) was > 100 µM.
`O=C1C(Cl)=C(OCCCl)C(=O)c2c(O)ccc(O)c21` was tested, and the TGI (HCT-15 colon) was 7.01 µM, the TGI (TK-10 renal) was 7.76 µM and the TGI (SN12C renal) was 28 µM. It also gave a TGI (CAKI-1 renal) of 3.93 µM, a TGI (COLO 205 colon) of 3.26 µM and a TGI (HL-60(TB) leukemia) of 0.197 µM. It also gave a TGI (MDA-N) of 7.37 µM, a TGI (PC-3 prostate) of 26 µM and a TGI (OVCAR-4 ovarian) of 5.46 µM. It also gave a TGI (SK-MEL-5 melanoma) of 6.91 µM.
For `CN(C)c1ccc(/C(F)=C(F)/C(F)=C(F)/C(F)=C(\F)c2ccc(Br)cc2)cc1`, the TGI (HCT-15 colon) was > 100 µM, the TGI (TK-10 renal) was > 100 µM and the TGI (SN12C renal) was > 25.5 µM. For the same compound, the TGI (CAKI-1 renal) was > 84 µM, the TGI (COLO 205 colon) was 63.2 µM and the TGI (HL-60(TB) leukemia) was > 75 µM. The TGI (MDA-N) was 7.54 µM, the TGI (PC-3 prostate) was > 52 µM and the TGI (OVCAR-4 ovarian) was > 100 µM. For the same compound, the TGI (SK-MEL-5 melanoma) was > 100 µM.
Work on `CCCCCCCC/C=C\CCCCCCC/C=C1\C[C@](/C=C/C(=O)OC)(CO)OC1=O` yielded a TGI (HCT-15 colon) of 8.22 µM, a TGI (TK-10 renal) of 8 µM and a TGI (SN12C renal) of 4.01 µM. The TGI (CAKI-1 renal) was 4.15 µM, the TGI (COLO 205 colon) was 5.02 µM and the TGI (HL-60(TB) leukemia) was 6.14 µM. The TGI (MDA-N) was 2.27 µM, the TGI (PC-3 prostate) was 6.96 µM and the TGI (OVCAR-4 ovarian) was 10.9 µM. For the same compound, the TGI (SK-MEL-5 melanoma) was 16.8 µM.
Compound `Cc1ccc([S@](=O)c2occc2C=O)cc1` has a TGI (HCT-15 colon) of 9.84 µM, a TGI (TK-10 renal) of 18.6 µM and a TGI (SN12C renal) of 27.7 µM. For the same compound, the TGI (CAKI-1 renal) was 30.7 µM, the TGI (COLO 205 colon) was 28.9 µM and the TGI (HL-60(TB) leukemia) was 4.25 µM. The TGI (MDA-N) was 15.1 µM, the TGI (PC-3 prostate) was 10.4 µM and the TGI (OVCAR-4 ovarian) was > 53.2 µM. It also gave a TGI (SK-MEL-5 melanoma) of 23.1 µM.
With `OCC(O)C(O)C(O)C(O)c1nc2ccc(Cl)cc2[nH]1` (stereo not given) the TGI (HCT-15 colon) was > 100 µM, the TGI (TK-10 renal) was > 100 µM and the TGI (SN12C renal) was > 100 µM. The TGI (CAKI-1 renal) was > 100 µM, the TGI (COLO 205 colon) was > 100 µM and the TGI (HL-60(TB) leukemia) was 4.89 µM. The TGI (MDA-N) was > 100 µM, the TGI (PC-3 prostate) was > 100 µM and the TGI (OVCAR-4 ovarian) was > 100 µM. The TGI (SK-MEL-5 melanoma) was > 100 µM.
With `C=C(C(N)=O)c1ccc([N+](=O)[O-])o1` the TGI (HCT-15 colon) was 27.9 µM, the TGI (TK-10 renal) was 27.2 µM and the TGI (SN12C renal) was 22.4 µM. The TGI (CAKI-1 renal) was 7.27 µM, the TGI (COLO 205 colon) was 12.9 µM and the TGI (HL-60(TB) leukemia) was 6.12 µM. For the same compound, the TGI (MDA-N) was 13.5 µM, the TGI (PC-3 prostate) was 76 µM and the TGI (OVCAR-4 ovarian) was 29 µM. For the same compound, the TGI (SK-MEL-5 melanoma) was 16.4 µM.
Compound `CC(=O)OCC1OC(SC2=N/C(=C\c3ccc(Br)s3)C(=O)N2CN2CCOCC2)C(OC(C)=O)C(OC(C)=O)C1OC(C)=O` (stereo not given) has a TGI (HCT-15 colon) of 49.1 µM, a TGI (TK-10 renal) of 34.8 µM and a TGI (SN12C renal) of 32.2 µM. The TGI (CAKI-1 renal) was 34.3 µM, the TGI (COLO 205 colon) was 37.6 µM and the TGI (HL-60(TB) leukemia) was 12.8 µM. For the same compound, the TGI (MDA-N) was 47.7 µM, the TGI (PC-3 prostate) was 54.5 µM and the TGI (OVCAR-4 ovarian) was > 100 µM. It also gave a TGI (SK-MEL-5 melanoma) of 33.5 µM.
Work on `CSCCC(N)C(=O)NCCNc1ccc(NCCNC(=O)C(N)CCSC)c2c1C(=O)c1ccccc1C2=O` (stereo not given) yielded a TGI (HCT-15 colon) of 16.3 µM, a TGI (TK-10 renal) of 9.3 µM and a TGI (SN12C renal) of 2.55 µM. It also gave a TGI (CAKI-1 renal) of 7.25 µM, a TGI (COLO 205 colon) of 3.13 µM and a TGI (HL-60(TB) leukemia) of 5.36 µM. It also gave a TGI (MDA-N) of 4.23 µM, a TGI (PC-3 prostate) of 6.02 µM and a TGI (OVCAR-4 ovarian) of 3.71 µM. The TGI (SK-MEL-5 melanoma) was 13.2 µM.
For `OC1(c2ccccc2)CCN(Cc2c[nH]c3ccccc23)CC1`, the TGI (HCT-15 colon) was > 100 µM, the TGI (TK-10 renal) was > 100 µM and the TGI (SN12C renal) was > 100 µM. For the same compound, the TGI (CAKI-1 renal) was > 100 µM, the TGI (COLO 205 colon) was 31.7 µM and the TGI (HL-60(TB) leukemia) was > 100 µM. The TGI (MDA-N) was > 100 µM, the TGI (PC-3 prostate) was > 100 µM and the TGI (OVCAR-4 ovarian) was > 100 µM. For the same compound, the TGI (SK-MEL-5 melanoma) was > 100 µM.
In the case of `CC1(C)CC(O)C(C)(C)[C@@H](O)C1` (stereo not given in full), the TGI (HCT-15 colon) is reported as > 100 µM, the TGI (TK-10 renal) is reported as > 100 µM and the TGI (SN12C renal) is reported as > 100 µM. The TGI (CAKI-1 renal) was > 100 µM, the TGI (COLO 205 colon) was > 100 µM and the TGI (HL-60(TB) leukemia) was > 100 µM. For the same compound, the TGI (MDA-N) was > 100 µM, the TGI (PC-3 prostate) was > 100 µM and the TGI (OVCAR-4 ovarian) was > 100 µM. For the same compound, the TGI (SK-MEL-5 melanoma) was > 100 µM.
In the case of `CC(NC(=O)C(NC(=O)CNC(=O)OC(C)(C)C)C(C)C)C(=O)Oc1c(Cl)c(Cl)c(Cl)c(Cl)c1Cl` (stereo not given), the TGI (HCT-15 colon) is reported as 33.2 µM, the TGI (TK-10 renal) is reported as 77.2 µM and the TGI (SN12C renal) is reported as 42 µM. For the same compound, the TGI (CAKI-1 renal) was 39.3 µM, the TGI (COLO 205 colon) was 43.2 µM and the TGI (HL-60(TB) leukemia) was > 100 µM. The TGI (MDA-N) was > 100 µM, the TGI (PC-3 prostate) was 32.1 µM and the TGI (OVCAR-4 ovarian) was 60.9 µM. The TGI (SK-MEL-5 melanoma) was 33.9 µM.
`CO/N=C1\CC(NC(=O)CNC(=O)OC(C)(C)C)c2ccsc21` (stereo not given) was tested, and the TGI (HCT-15 colon) was > 100 µM, the TGI (TK-10 renal) was > 100 µM and the TGI (SN12C renal) was > 100 µM. The TGI (CAKI-1 renal) was > 100 µM, the TGI (COLO 205 colon) was > 100 µM and the TGI (HL-60(TB) leukemia) was > 100 µM. For the same compound, the TGI (MDA-N) was > 100 µM, the TGI (PC-3 prostate) was > 100 µM and the TGI (OVCAR-4 ovarian) was > 100 µM. For the same compound, the TGI (SK-MEL-5 melanoma) was > 100 µM.
